How the values were obtained:
[1] = Molar enthalpy of transition or fusion; details: Crystal
[2] = Crystal
[3] = molar heat capacity at constant pressure; details: 101.33 kPa

CN(C)c1ccncc1 [4-(dimethylamino)pyridine]
Details | Molar enthalpy of transition or fusion, Adiabatic calorimetry [kcal/mol] | Molar enthalpy of transition or fusion, DSC [kcal/mol] | Normal melting temperature, Adiabatic calorimetry [°C] | Normal melting temperature, DTA [°C]
[1] | 5.17 | 5.17 | – | –
[2] | – | – | 113.94 | 114.0

[3], Crystal
Details | molar heat capacity at constant pressure [J/K/mol]
80.03 K | 64.47
83.52 K | 66.81
86.44 K | 69.05
89.41 K | 71.03
92.44 K | 72.95
95.51 K | 74.9
98.51 K | 76.86
101.43 K | 78.68
104.42 K | 80.51
107.48 K | 82.3
110.47 K | 83.92
113.41 K | 85.67
116.41 K | 87.31
119.47 K | 89.01
122.49 K | 90.57
125.46 K | 92.11
128.49 K | 93.69
131.59 K | 95.38
134.65 K | 96.78
137.66 K | 98.3
140.65 K | 99.76
143.69 K | 101.22
146.8 K | 102.9
149.88 K | 104.47
152.93 K | 105.97
155.94 K | 107.42
158.93 K | 108.62
161.98 K | 109.91
165.1 K | 111.54
168.19 K | 113.06
171.25 K | 114.49
174.28 K | 115.97
177.29 K | 117.2
180.27 K | 118.57
183.32 K | 120.19
186.44 K | 121.88
189.53 K | 123.23
192.6 K | 124.43
195.65 K | 125.95
198.67 K | 127.3
201.68 K | 128.65
204.66 K | 130
207.72 K | 131.46
210.84 K | 133.09
213.94 K | 134.61
217.02 K | 135.82
220.08 K | 139.06
223.12 K | 141.26
226.12 K | 143.32
229.09 K | 145.3
232.06 K | 146.84
235.11 K | 149.01
238.15 K | 150.96
241.18 K | 152.05
244.19 K | 153.79
247.18 K | 155.15
250.16 K | 156.56
253.13 K | 157.38
256.16 K | 158.57
259.24 K | 159.8
262.29 K | 161.74
265.4 K | 163.21
268.51 K | 165.52
271.55 K | 167.5
274.51 K | 168.7
277.42 K | 169.84
280.39 K | 171.69
283.34 K | 173.55
286.27 K | 175.43
289.25 K | 177.99
292.28 K | 179.13
295.28 K | 180.15
298.29 K | 181.32
301.34 K | 183.53
304.44 K | 184.83
307.47 K | 185.41
310.42 K | 187.12
313.4 K | 188.44
316.42 K | 189.79
319.4 K | 191.08
322.4 K | 192.54
325.41 K | 193.75
328.42 K | 194.7
331.5 K | 195.13
334.53 K | 196.95
337.56 K | 198.33
340.67 K | 200.84
342.97 K | 199.88
343.66 K | 201.99
343.86 K | 200.32
345.56 K | 201.09
346.45 K | 202.23
346.7 K | 203.24
348.77 K | 203.52
349.62 K | 204.76
349.67 K | 205.23
351.86 K | 205.79
352.63 K | 206.7
352.69 K | 207.19
354.94 K | 207.38
355.72 K | 208.46
355.82 K | 209.44
358.07 K | 209.19
358.46 K | 210.78
359.14 K | 211.21
361.26 K | 211.54
361.64 K | 213.95
362.4 K | 212.78
364.46 K | 214.96
364.97 K | 216.45
365.52 K | 215.57
367.64 K | 216.47
368.27 K | 219.21
368.63 K | 217.48
370.81 K | 219.17
371.06 K | 221.32
371.59 K | 220.81
373.98 K | 222.94
374.28 K | 223.05
374.54 K | 223.68
377.12 K | 225.02
377.36 K | 225
377.66 K | 225.68
380.18 K | 228.35
380.23 K | 226.87
380.77 K | 227.73
383.33 K | 231.81

[3], Liquid, Small (less than 1 g) adiabatic calorimetry
Details | molar heat capacity at constant pressure [J/K/mol]
388.4 K | 231.37
389.73 K | 233.89
389.99 K | 232.72
390.88 K | 233.99
392.95 K | 234.74
393.17 K | 234.28
393.33 K | 235.41
395.77 K | 236.28
396.07 K | 235.35
396.35 K | 235.97
398.22 K | 237.66
399.18 K | 236.11
399.52 K | 236.69
402.29 K | 237.05
402.68 K | 237.16

Source: the NIST ThermoML archive (doi:10.1021/je6005423)
